Test results taken from PubChem BioAssay AID2060603 (Molecular Pharmacology Branch, DTP, NCI, 2025).

Tested on: 422866-222-R5-J1-PDC spheroid viability
Experiment: Anticancer human tumor 422866-222-R5-J1-PDC patient-derived pancreatic adenocarcinoma cell line growth inhibition [CLK]
Conditions: spheroids with HUVEC and MSC; for IC50: curve of first compound; for viability, T/C: stronger effect = lower value; active = viability on the fitted dose curve at most 10% of control; inactive = the rest
Description: A high-throughput screen of multi-cell type tumor spheroids was designed to identify active combinations of […] and targeted small molecules. Complex spheroids include a stromal component modeled by human endothelial cells (HUVEC) and fibroblasts modeled by human mesenchymal stem cells (MSCs). The concentration ranges selected for each drug and investigational agent were based upon clinically achievable concentrations if the clinical Cmax of the agent was known.
Compounds. The drugs and investigational agents: cirtuvivint (SM08502; NSC835563), CC-671 (NSC850746), vemurafenib (NSC761431), tapotoclax (NSC804041), sotorasib (NSC818433), adagrasib (NSC831453), MRTX-1133 (NSC836407), BAY2416964 (NSC825713), copanlisib (NSC816437), inavolisib (NSC800729), abemaciclib (NSC768073), osimertinib (NSC779217), entinostat (NSC756642), eltanexor (KPT-8602, NSC794443), venetoclax (NSC766270), ceralasertib (NSC777638), bortezomib (NSC756655), olaparib (NSC753686), talazoparib (NSC767125), alisertib (NSC759677), peposertib (NSC802822), gemcitabine (NSC613327), 5-fluorouracil (NSC19893), SN-38 (NSC673596), oxaliplatin (NSC266046), paclitaxel (NSC125973), and doxorubicin (NSC123127), were obtained from the National Cancer Institute (NCI) Developmental Therapeutics Program Chemical Repository. The FDA-approved anticancer drug set is available from the Developmental Therapeutics Program at https://dtp.cancer.gov/organization/dscb/obtaining/available plates.htm. […] The stock solutions were prepared in dimethyl sulfoxide (DMSO, Sigma-Aldrich, St. Louis, MO, cat. D2650), except for the platinum complexes which were prepared in saline (Quality Biological, Gaithersburg, MD, cat. 114-055-101), at 800-fold the tested concentration and stored at -70 degrees C prior to their use. All drugs and investigational agents were tested over a range starting from a high concentration at or near the clinical Cmax and decreasing in half-log increments. If the clinical Cmax for an agent had not been determined, the highest concentration tested was 10 microM.
Cell Culture. All cells were maintained in an incubator at 37 degrees C and 5% CO2 with 95% humidity. The PDC lines were cultured according to standard operating procedures established by the NCI PDMR. Briefly, all PDCs were thawed and cultured in Matrigel-coated flasks prepared with a working solution of 1X Ham's F-12 nutrient mix, without supplementation (Invitrogen, Waltham, MA, cat. 11765054), 100 U/mL penicillin-streptomycin (Invitrogen, cat. 15140122), and 2.5% Matrigel (Corning Inc., Corning, NY, cat. 354248) for the first three passages. The 947758-054-R-J2-PDC line was cultured in 6B/Colon 1A media, which includes advanced DMEM/F-12 (Thermo Fisher Scientific, cat. 12634028), 10 mM HEPES (Thermo Fisher Scientific, cat. 15630080), 1X GlutaMAX supplement (Thermo Fisher Scientific, cat. 35050061), 0.1 mg/mL primocin (InvivoGen, cat. ant-pm-2), 10% defined fetal bovine serum, heat inactivated (HyClone Laboratories Inc., cat. SH30070.03HI), 1.25 mM N-Acetyl-L-cysteine (Sigma-Aldrich, cat. A9165), 10 mM nicotinamide (Sigma-Aldrich, cat. N0636), 1X B-27 supplement (Thermo Fisher Scientific, cat. 17504044), 1X N-2 supplement (Thermo Fisher Scientific, cat. 17502048), and 10 microM Y-27632 dihydrochloride (Tocris Bioscience, cat. 1254). The 876862-298-R-J1-PDC was cultured in 6E media, which includes all 6B/Colon 1A media components plus 50% L-WRN conditioned media (ATCC, cat. CRL-3276), 50 ng/mL recombinant human EGF recombinant protein (hEGF; Thermo Fisher Scientific, cat. PHG0311), 10 ng/mL recombinant human fibroblast growth factor 10 (hGFG-10; PeproTech, cat. 100-26), 1 ng/mL recombinant human fibroblast growth factor 2 (hFGF-2; PeproTech, cat. 100-18B), and 1 µM prostaglandin E2 (PGE2; Tocris, cat. 2296). The 227483-062-R1-J1-PDC line was cultured in Panc media, containing all 6E components except hFGF-2, with the addition of 500 nM SB-431542 (Selleckchem, cat. S1067) and 10 nM gastrin (Tocris, cat. 3006). […]
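Also: spheroids exposed to agents for seven days before readout.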

COC1C=CCC(C)C(C)S(=O)(=O)NC(=O)c2ccc3c(c2)N(CC2CCC21)CC1(CCCc2cc(Cl)ccc21)CO3 (configuration not stated) + CN1CCN(c2cc(C(=O)Nc3cc4cc(-c5cnn(C)c5)ccc4cn3)ccn2)CC1
< 0.0316 µM: IC50 (second compound 1 µM) | IC50 (second compound 3.16 µM) | IC50 (second compound 10 µM)
inactive: viability, T/C (second compound 0.0316 µM, first compound 0.0316 µM) 102% | viability, T/C (second compound 0.0316 µM, first compound 0.1 µM) 102% | viability, T/C (second compound 0.0316 µM, first compound 0.316 µM) 113% | viability, T/C (second compound 0.0316 µM, first compound 1 µM) 98.1% | viability, T/C (second compound 0.0316 µM, first compound 3.16 µM) 97% | viability, T/C (second compound 0.0316 µM, first compound 10 µM) 76.8% | viability, T/C (second compound 0.1 µM, first compound 0.0316 µM) 131% | viability, T/C (second compound 0.1 µM, first compound 0.1 µM) 104% | viability, T/C (second compound 0.1 µM, first compound 0.316 µM) 105% | viability, T/C (second compound 0.1 µM, first compound 1 µM) 107% | viability, T/C (second compound 0.1 µM, first compound 3.16 µM) 114% | viability, T/C (second compound 0.1 µM, first compound 10 µM) 94.7% | viability, T/C (second compound 0.316 µM, first compound 0.0316 µM) 103% | viability, T/C (second compound 0.316 µM, first compound 0.1 µM) 92.8% | viability, T/C (second compound 0.316 µM, first compound 0.316 µM) 104% | viability, T/C (second compound 0.316 µM, first compound 1 µM) 99% | viability, T/C (second compound 0.316 µM, first compound 3.16 µM) 113% | viability, T/C (second compound 0.316 µM, first compound 10 µM) 105% | viability, T/C (second compound 1 µM, first compound 0.0316 µM) 29.4% | viability, T/C (second compound 1 µM, first compound 0.1 µM) 28.8% | viability, T/C (second compound 1 µM, first compound 0.316 µM) 38.5% | viability, T/C (second compound 1 µM, first compound 1 µM) 28.9% | viability, T/C (second compound 1 µM, first compound 3.16 µM) 38.7% | viability, T/C (second compound 1 µM, first compound 10 µM) 39.2%
active: viability, T/C (second compound 3.16 µM, first compound 0.0316 µM) 8.76% | viability, T/C (second compound 3.16 µM, first compound 0.1 µM) 9.13% | viability, T/C (second compound 3.16 µM, first compound 0.316 µM) 9.74% | viability, T/C (second compound 3.16 µM, first compound 1 µM) 7.9% | viability, T/C (second compound 3.16 µM, first compound 3.16 µM) 9.36% | viability, T/C (second compound 3.16 µM, first compound 10 µM) 5.17% | viability, T/C (second compound 10 µM, first compound 0.0316 µM) 2.4% | viability, T/C (second compound 10 µM, first compound 0.1 µM) 1.91% | viability, T/C (second compound 10 µM, first compound 0.316 µM) 1.69% | viability, T/C (second compound 10 µM, first compound 1 µM) 1.81% | viability, T/C (second compound 10 µM, first compound 3.16 µM) 2.33% | viability, T/C (second compound 10 µM, first compound 10 µM) 3.52%
> 10 µM: IC50 (second compound 0.0316 µM) | IC50 (second compound 0.1 µM) | IC50 (second compound 0.316 µM)
